Data published in ChEMBL document CHEMBL3616432, “(+)-Dehydroabietylamine derivatives target triple-negative breast cancer” (Eur J Med Chem, 2015).
Calls of active or inactive are those of the source. The calls are words filed in the database; no cut-off is given here.

What was measured:
HEK293 = assay: Cytotoxicity against HEK293 cells at <= 50 uM after 72 hrs by CellTiter-Glo assay; assay type: cell-based; conditions: human, hek293, 72 h
HepG2 = assay: Cytotoxicity against human HepG2 cells at <= 50 uM after 72 hrs by CellTiter-Glo assay; assay type: cell-based; conditions: hepg2, 72 h
MDA-MB-231 [1] = assay: Antiproliferative activity against human triple-negative MDA-MB-231 cells at 22 uM after 72 hrs by CellTiter-Glo assay; assay type: functional, cell-based
MDA-MB-231 [2] = assay: Antiproliferative activity against human triple-negative MDA-MB-231 cells at <= 50 uM after 72 hrs by CellTiter-Glo assay; assay type: functional, cell-based
MDA-MB-231 [3] = assay: Antiproliferative activity against human triple-negative MDA-MB-231 cells at >52.3 uM after 72 hrs by CellTiter-Glo assay; assay type: functional, cell-based
MDA-MB-231 [4] = assay: Induction of apoptosis in human triple-negative MDA-MB-231 cells assessed as early apoptotic cells after 12 hrs by Annexin V-FITC/propidium iodide staining-based flow cytometry (reference value: 3.1%); assay type: functional
MDA-MB-231 [5] = assay: Induction of apoptosis in human triple-negative MDA-MB-231 cells assessed as late apoptotic cells after 12 hrs by Annexin V-FITC/propidium iodide staining-based flow cytometry (reference value: 3.7%); assay type: functional
MDA-MB-231 [6] = assay: Antiproliferative activity against human triple-negative MDA-MB-231 cells at 29 uM after 72 hrs by CellTiter-Glo assay; assay type: functional, cell-based
MDA-MB-231 [7] = assay: Cell cycle arrest in human triple-negative MDA-MB-231 cells assessed as accumulation at G0/G1 phase at 28.5 uM after 12 hrs by propidium iodide staining-based flow cytometry (reference value: 48.36%); assay type: functional
MDA-MB-231 [8] = assay: Induction of apoptosis in human triple-negative MDA-MB-231 cells assessed as decrease in caspase-7 level after 6 to 12 hrs by western blot analysis; assay type: functional, cell-based
MDA-MB-231 [9] = assay: Induction of apoptosis in human triple-negative MDA-MB-231 cells assessed as increase in cleaved caspase-9 level after 6 to 12 hrs by western blot analysis; assay type: functional, cell-based
MDA-MB-231 [10] = assay: Cell cycle arrest in human triple-negative MDA-MB-231 cells assessed as accumulation at G2/M phase at 28.5 uM after 12 hrs by propidium iodide staining-based flow cytometry (reference value: 20.40%); assay type: functional
MDA-MB-231 [11] = assay: Induction of apoptosis in human triple-negative MDA-MB-231 cells assessed as increase in cleaved PARP level by western blot analysis; assay type: functional, cell-based; conditions: TDE = time-dependent effect
MDA-MB-231 [12] = assay: Cell cycle arrest in human triple-negative MDA-MB-231 cells assessed as accumulation at S phase at 28.5 uM after 12 hrs by propidium iodide staining-based flow cytometry (reference value: 31.23%); assay type: functional
MDA-MB-231 [13] = assay: Induction of apoptosis in human triple-negative MDA-MB-231 cells assessed as viable cells after 12 hrs by Annexin V-FITC/propidium iodide staining-based flow cytometry (reference value: 93.1%); assay type: functional
MDA-MB-231 [14] = assay: Induction of apoptosis in human triple-negative MDA-MB-231 cells assessed as increase in DR5 level after 12 hrs by western blot analysis; assay type: functional, cell-based
MDA-MB-231 [15] = assay: Induction of apoptosis in human triple-negative MDA-MB-231 cells assessed as necrotic cells after 12 hrs by Annexin V-FITC/propidium iodide staining-based flow cytometry (reference value: 0.1%); assay type: functional
MDA-MB-231 [16] = assay: Induction of apoptosis in human triple-negative MDA-MB-231 cells at 2.5 uM after 6 to 48 hrs by microscopic analysis; assay type: functional, cell-based
MDA-MB-231 [17] = assay: Cell cycle arrest in human triple-negative MDA-MB-231 cells assessed as accumulation at S phase at 2.5 uM after 12 hrs by propidium iodide staining-based flow cytometry (reference value: 31.23%); assay type: functional
MDA-MB-231 [18] = assay: Cell cycle arrest in human triple-negative MDA-MB-231 cells assessed as accumulation at G2/M phase at 2.5 uM after 12 hrs by propidium iodide staining-based flow cytometry (reference value: 20.40%); assay type: functional
MDA-MB-231 [19] = assay: Cell cycle arrest in human triple-negative MDA-MB-231 cells assessed as accumulation at G0/G1 phase at 2.5 uM after 12 hrs by propidium iodide staining-based flow cytometry (reference value: 48.36%); assay type: functional
MDA-MB-231 [20] = assay: Antiproliferative activity against human triple-negative MDA-MB-231 cells after 72 hrs by CellTiter-Glo assay; assay type: functional, cell-based
[21] = Permeability of the compound at pH 7.4 assessed as drug retention by PAMPA assay; assay type: physicochemical
[22] = Efflux ratio of permeability from basolateral to apical side over apical to basolateral side in human Caco2 cells; assay type: ADME, cell-based; conditions: Caco-2
[23] = Apparent permeability from apical to basolateral side in human Caco2 cells; assay type: ADME, cell-based; conditions: Caco-2
[24] = Apparent permeability from basolateral to apical side in human Caco2 cells; assay type: ADME, cell-based; conditions: Caco-2
[25] = Permeability of the compound at pH 7.4 by PAMPA assay; assay type: physicochemical; conditions: read-out: permeability

For `CC(C)c1cc2c(c(O)c1O)[C@@]13CCCC(C)(C)[C@@H]1C[C@@H]2OC3=O` [CARNOSOL], the Activity (HEK293) was “Non-toxic”, the Activity (HepG2) was “Non-toxic” and the Activity (MDA-MB-231 [1]) was “Active”. For the same molecule, the Activity (MDA-MB-231 [2]) was “Active”.

In the case of `CC(C)c1ccc2c(c1)CC[C@H]1[C@](C)(CNS(=O)(=O)c3ccc(F)cc3)CCC[C@]21C`, the Activity (MDA-MB-231 [3]) was “Active”.

With `CC(C)c1ccc2c(c1)CC[C@H]1[C@](C)(C(=O)O)CCC[C@]21C` [DEHYDROABIETIC ACID] the Activity (HEK293) was “Non-toxic”, the Activity (HepG2) was “Non-toxic” and the Activity (MDA-MB-231 [2]) was “Active”.

For `CC(C)c1ccc2c(c1)CC[C@H]1[C@](C)(CNS(=O)(=O)c3ccc(Cl)c(Cl)c3)CCC[C@]21C`, the Activity (MDA-MB-231 [3]) was “Active”.

With `CC(C)c1ccc2c(c1)CC[C@H]1[C@](C)(CNS(=O)(=O)c3c(F)cccc3F)CCC[C@]21C` the Activity (MDA-MB-231 [3]) was “Active”.

In the case of `CC(C)c1ccc2c(c1)CC[C@H]1[C@](C)(CNS(=O)(=O)c3cc(F)c(F)c(F)c3)CCC[C@]21C`, the Activity (MDA-MB-231 [3]) was “Active”.

In the case of `CC(C)c1cc2c(cc1O)[C@@]1(C)CCCC(C)(C)[C@@H]1CC2` [FERRUGINOL], the Activity (HEK293) was “Non-toxic”, the Activity (MDA-MB-231 [4]) was 4.4% and the Activity (MDA-MB-231 [5]) was 9.6%. The Activity (MDA-MB-231 [6]) was “Active”, the Activity (MDA-MB-231 [7]) was 50.76% and the Activity (HepG2) was “Non-toxic”. For the same molecule, the Activity (MDA-MB-231 [8]) was “Active”, the Activity (MDA-MB-231 [9]) was “inactive” and the Activity (MDA-MB-231 [10]) was 19.54%. For the same molecule, the Activity (MDA-MB-231 [11]) was “tde”, the Activity (MDA-MB-231 [12]) was 29.7% and the Activity (MDA-MB-231 [13]) was 85.8%. The Activity (MDA-MB-231 [2]) was “Active”, the Activity (MDA-MB-231 [14]) was “Active” and the Activity (MDA-MB-231 [15]) was 0.2%.

With `CC(C)c1ccc2c(c1)CC[C@H]1[C@](C)(CNS(=O)(=O)c3cc(Cl)cc(Cl)c3O)CCC[C@]21C` the Activity (MDA-MB-231 [3]) was “Active”.

For `CN[C@@H]1C[C@H]2O[C@@](C)([C@@H]1OC)n1c3ccccc3c3c4c(c5c6ccccc6n2c5c31)C(=O)NC4` [STAUROSPORINE], the Activity (MDA-MB-231 [4]) was 25%, the Activity (MDA-MB-231 [16]) was “inactive” and the Activity (MDA-MB-231 [17]) was 33.22%. The Activity (MDA-MB-231 [13]) was 55.7%, the Activity (MDA-MB-231 [15]) was 0.5% and the Activity (MDA-MB-231 [18]) was 23.28%. The Activity (MDA-MB-231 [19]) was 43.5%.

For `CC(C)C1=CC2=CC[C@@H]3[C@](C)(CCC[C@@]3(C)C(=O)O)[C@H]2CC1`, the Activity (MDA-MB-231 [20]) was “inactive”.

In the case of `NC(=O)N1c2ccccc2C=Cc2ccccc21` [CARBAMAZEPINE], the permeability [21] was 40.9%, the efflux ratio [22] was 0.6 and the Papp A→B [23] was 66.7 ×10⁻⁶ cm/s. The Papp B→A [24] was 42.8 ×10⁻⁶ cm/s and the Papp [25] was 128 ×10⁻⁶ cm/s.

In the case of `CC(C)c1ccc2c(c1)CC[C@H]1[C@](C)(CN)CCC[C@]21C`, the Activity (HEK293) was “Non-toxic”, the Activity (HepG2) was “Non-toxic” and the Activity (MDA-MB-231 [2]) was “Active”.

With `C=C[C@@]1(C)C=C2CC[C@@H]3[C@](C)(CCC[C@@]3(C)C(=O)O)[C@H]2CC1` the Activity (MDA-MB-231 [20]) was “inactive”.
